Measurements reported in article PMC7531601, “Exploiting Lactoferricin (17–30) as a Potential Antimicrobial and Antibiofilm Candidate Against Multi-Drug-Resistant Enteroaggregative Escherichia coli” (Frontiers in Microbiology, 2020).
Values after ≈ are worked out from the molar mass of the structure shown.

Assays:
MDR-EAEC isolates [1] = assay: In vitro antibiotic susceptibility testing of MDR-EAEC isolates; type: cell-based, enteroaggregative Escherichia coli; set-up: key to Antibiotic Susceptibility testing / MIC Values (mg/L), given as class symbol: S – Sensitive; R- Resistant; conditions: for MIC: Escherichia coli
Source text: E. coli ATCC 25922 was used as the quality control strain for antibiotic susceptibility testing.

MDR-EAEC isolates [2] = assay: In vitro time-kill kinetics; type: cell-based, enteroaggregative Escherichia coli; conditions: 10 μg/ml, ca. 1 × 10^7 CFU/ml, CA-MH broth, 37°C
Method: The in vitro dose- and time-kill kinetics was assessed by co-incubating the log-phase cultures of each of MDR-EAEC isolates (ca. 1 × 10^7 CFU/ml) in cation-adjusted Mueller Hinton (CA-MH) broth with MIC (1 × and 2 × ) of Lfcin (17–30) (Supplementary Information S6). The desired inoculum for each MDR-EAEC strain and Lfcin (17–30) suspended in CA-MH broth was as follows: Group I, 10^7 CFU of MDR-EAEC (50 μl) with 1 × MIC of Lfcin (17–30) (50 μl); Group II, 10^7 CFU of MDR-EAEC (50 μl) with 2 × MIC of Lfcin (17–30) (50 μl); Group III, 10^7 CFU of MDR-EAEC (50 μl) with 10 μg/ml of Meropenem (50 μl); and Group IV, 10^7 CFU of MDR-EAEC (50 μl) in CA-MH broth (50 μl). The MDR-EAEC counts were enumerated ([Miles et al., 1938]) at 0, 30, 60, 90, 120, 150, and 180 min, and 24, 48, and 72 h post co-incubation.
FIGURE 2 Dose- and time-dependent time-kill assay of MDR-EAEC isolates co-cultured with Lfcin (17–30). MDR-EAEC isolates (n = 3) were co-cultured with 1 × MIC of Lfcin (17–30) (A) and 2 × MIC of Lfcin (17–30) (B) in CA-MH broth at 37°C under static conditions with respective controls of MDR-EAEC isolates (untreated and meropenem-treated). Data expressed as the mean ± standard deviation (log10CFU/ml) of three independent experiments (***P < 0.001). […]

G. mellonella larvae = assay: LDH cytotoxicity assay of larval haemolymph; type: in vivo, Galleria mellonella; conditions: infected larvae treated 3 h pi
Method: (§1) Galleria mellonella larvae were grouped 40 per group for in vivo antimicrobial testing of Lfcin (17–30) as follows: group I (MDR-EAEC infection control), groups II and III (infection + treatment groups), group IV (PBS control), and group V [Lfcin(17–30) control]. Optimized LD50 dose of MDR-EAEC (a cocktail of three strains) was administered to larvae of groups I to III, while MIC dose of Lfcin (17–30) and Meropenem was administered 3 h post-infection (pi) in groups II and III, respectively. Larval group IV was injected with sterile PBS, whereas MIC dose of Lfcin (17–30) was administered in group V.
The larvae were then observed for their survival rate, melanization (Supplementary Information S7), MDR-EAEC counts (Supplementary Information S8), hemocyte density (Supplementary Information S9) ([Wand et al., 2013]), lactate dehydrogenase (LDH) cytotoxicity assay (Supplementary Information S10) ([Gibreel and Upton, 2013]), and histopathology (Supplementary Information S11) ([Perdoni et al., 2014]), at an interval of 6 h till 24 h, followed by 24-h interval up to 120 h pi.
G. mellonella (n=3 larvae per group) were analysed for the production of LDH, as a marker of cell damage, at an interval of 6 h pi for 24 h, followed by 24 h interval till 96 h pi using QuantiChrom LDH cytotoxicity assay kit, according to the manufacturer’s instructions. The positive and negative controls used in this study were […]. The absorbance was read using ELISA plate reader at 500 nm; the haemolymph from untreated larvae served as background control and the cytotoxicity was calculated as, Cytotoxicity (%) = (ODSample - ODControl)/ (ODTotal Lysis - ODControl) x 100, wherein, sample is the control absorbance of treated cell; control is the experimental absorbance of the untreated cell control and total lysis is the absorbance of Triton X-100 treated cells.

[3] = test system: G. mellonella larvae infected with MDR-EAEC (a cocktail of three strains); assay: G. mellonella larval survival; type: in vivo, Galleria mellonella; conditions: larvae infected with LD50 dose (10^6 CFU) of MDR-EAEC, MIC dose 3 h pi, up to 120 h pi, 40 larvae per group
Method: The final instar of G. mellonella larvae was utilized for performing the in vivo assays ([Morgan et al., 2014]). The larvae (ca. 200–250 mg) inoculated with aliquots of MDR-EAEC suspensions (10 μl) by injection using Hamilton syringe (26 gauge) via the last right pro-leg were incubated at 37°C and the observations were noted. The larvae kept in a sterile environment were provided with ad lib food during the experiment.
The determined LD50 dose for each MDR-EAEC strain in the larvae was validated and employed further in the in vivo experiments to evaluate the antibacterial efficacy of Lfcin (17–30).
as §1, with “V. […]” for “V.”

| Compound | MIC (MDR-EAEC isolates [1]; KY941937.1 (MDR 2)) | MIC (MDR-EAEC isolates [1]; KY941938.1 (MDR 3)) | Antibiotic Susceptibility testing (MDR-EAEC isolates [1]; KY941936.1 (MDR 1)) | Antibiotic Susceptibility testing (MDR-EAEC isolates [1]; KY941937.1 (MDR 2)) | Antibiotic Susceptibility testing (MDR-EAEC isolates [1]; KY941938.1 (MDR 3)) | MIC Values (mg/L), given as class symbol (MDR-EAEC isolates [1]; KY941936.1 (MDR 1)) | MIC Values (mg/L), given as class symbol (MDR-EAEC isolates [1]; KY941937.1 (MDR 2)) | MIC Values (mg/L), given as class symbol (MDR-EAEC isolates [1]; KY941938.1 (MDR 3)) | further results |
| --- | --- | --- | --- | --- | --- | --- | --- | --- | --- |
| CN(C)[C@@H]1C(O)=C(C(N)=O)C(=O)[C@@]2(O)C(O)=C3C(=O)c4c(O)cccc4[C@@](C)(O)[C@H]3C[C@@H]12 [TE, Tetracycline] | 2 µg/mL (≈ 4.5 µM) | 30 µg/mL (≈ 67.5 µM) | R | R | R | – | – | – | MIC (MDR-EAEC isolates [1]; KY941936.1 (MDR 1)): 60 µg/mL (≈ 135 µM) |
| CNC(C)C1CCC(N)C(OC2C(N)CC(N)C(OC3OCC(C)(O)C(NC)C3O)C2O)O1 (stereo not drawn) [GEN, Gentamicin] | – | – | S | S | S | S | S | S | – |
| CC1(C)S[C@@H]2[C@H](NC(=O)[C@H](N)c3ccccc3)C(=O)N2[C@H]1C(=O)O [AMP, Ampicillin] | > 240 µg/mL | > 240 µg/mL | R | R | R | – | – | – | MIC (MDR-EAEC isolates [1]; KY941936.1 (MDR 1)): > 240 µg/mL |
| Co-trimoxazole [COT] | – | – | R | R | R | – | – | – | MIC Values (MDR-EAEC isolates [1]; KY941936.1 (MDR 1)): >240 µg/mL; MIC Values (MDR-EAEC isolates [1]; KY941937.1 (MDR 2)): >240 µg/mL; MIC Values (MDR-EAEC isolates [1]; KY941938.1 (MDR 3)): >240 µg/mL |
| C[C@@H](O)[C@H]1C(=O)N2C(C(=O)O)=C(S[C@@H]3CN[C@H](C(=O)N(C)C)C3)[C@H](C)[C@H]12 [meropenem, reference compound] | – | – | – | – | – | – | – | – | reduction in bacterial counts at 30 min post-coincubation (MDR-EAEC isolates [2]): highly significant (P < 0.001) reduction; time post-coincubation after which complete inhibition (MDR-EAEC isolates [2]): 60 min; LDH cytotoxicity (G. mellonella larvae): Almost similar observations; survival rate [3]: 85% |
| CO/N=C(\C(=O)N[C@@H]1C(=O)N2C(C(=O)O)=C(CSc3nc(=O)c(=O)[nH]n3C)CS[C@H]12)c1csc(N)n1 [CTR, Ceftriaxone] | > 240 µg/mL | > 240 µg/mL | S | R | R | S | – | – | – |
| Colistin sulphate | – | – | S | S | S | S | S | S | – |
| O=C(N[C@H](CO)[C@H](O)c1ccc([N+](=O)[O-])cc1)C(Cl)Cl [CL, Chloramphenicol] | – | – | S | S | S | S | S | S | – |
| O=C(O)c1cn(C2CC2)c2cc(N3CCNCC3)c(F)cc2c1=O [CIP, Ciprofloxacin] | 120 µg/mL (≈ 362 µM) | 60 µg/mL (≈ 181 µM) | S | R | R | – | – | – | – |
| Cc1cc(NS(=O)(=O)c2ccc(N)cc2)no1 [SXT, Sulfamethoxazole] | – | – | R | S | R | – | – | – | – |
| C[C@@H](O)[C@H]1C(=O)N2C(C(=O)O)=C(SCCN=CN)C[C@H]12 [IMI, Imipenem] | – | – | S | S | S | S | S | S | – |
